Measured values published in US20250122160A1, “PROTEIN TYROSINE PHOSPHATASE INHIBITORS AND METHODS OF USE THEREOF” (Calico Life Sciences LLC, priority 0001, published 2025).

Key:
[1] = biological target: T1, His tagged PTPN2 (TC45) protein (Homo sapiens, UniProt P17706); assay: Mobility shift assay (MSA) to determine potency of PTPN2 inhibitors; type: biochemical; settings: 0.5 nM enzyme, 2 μM substrate
T1 construct: made in house
T1 sequence (P17706 with tags, fused parts or gaps isoform P17706-2): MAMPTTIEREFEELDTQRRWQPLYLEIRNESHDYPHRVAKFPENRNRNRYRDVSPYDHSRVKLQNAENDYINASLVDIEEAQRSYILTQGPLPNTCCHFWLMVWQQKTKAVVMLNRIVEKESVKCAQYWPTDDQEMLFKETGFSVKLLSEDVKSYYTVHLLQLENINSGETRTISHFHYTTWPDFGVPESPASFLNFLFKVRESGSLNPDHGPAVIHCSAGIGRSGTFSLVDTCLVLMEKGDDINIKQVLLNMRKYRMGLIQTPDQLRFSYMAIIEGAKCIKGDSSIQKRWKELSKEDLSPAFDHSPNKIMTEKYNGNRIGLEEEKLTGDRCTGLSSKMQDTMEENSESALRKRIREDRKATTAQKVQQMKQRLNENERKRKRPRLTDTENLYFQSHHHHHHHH
Procedure, shortened: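 His-tagged human PTPN2 (TC45), 0.5 nM, preincubated 10 min at room temperature with compound (12-point, 1:3 dilutions) in HEPES pH 7.5 buffer with EGTA, EDTA, Tween 20 and DTT. Then 2 μM OG488-labelled phospho-insulin-receptor peptide was added for 10 min and quenched. % conversion was read by mobility shift, and IC50 came from % inhibition.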

[2] = biological target: T2, His tagged full-length PTPN1 protein (Homo sapiens, UniProt P18031); assay: Mobility shift assay (MSA) to determine potency of PTPN1 inhibitors; type: biochemical; settings: 0.5 nM enzyme, 2 μM substrate
T2 construct: made in house
T2 sequence (P18031 with tags, fused parts or gaps): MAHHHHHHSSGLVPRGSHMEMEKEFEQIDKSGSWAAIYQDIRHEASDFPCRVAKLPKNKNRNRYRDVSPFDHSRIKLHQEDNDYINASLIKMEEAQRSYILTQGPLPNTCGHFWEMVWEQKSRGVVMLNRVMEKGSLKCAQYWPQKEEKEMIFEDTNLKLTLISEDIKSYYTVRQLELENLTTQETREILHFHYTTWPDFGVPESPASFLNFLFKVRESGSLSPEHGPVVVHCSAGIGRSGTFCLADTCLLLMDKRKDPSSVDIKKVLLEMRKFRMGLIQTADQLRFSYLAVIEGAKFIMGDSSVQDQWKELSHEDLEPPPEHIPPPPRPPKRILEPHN
Procedure, shortened: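 His-tagged full-length human PTPN1 (0.5 nM) preincubated with compound 10 min at room temperature in pH 7.5 HEPES buffer with EGTA, EDTA, Tween 20 and DTT. Dephosphorylation of 2 μM fluorescent phospho-insulin-receptor peptide over 10 min measured by mobility shift. IC50 from % inhibition across a 12-point, 1:3 dilution series.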

Row | SMILES | IC50 [1] [nM] | IC50 [2] [nM]
1 | CC(C)CCNCC1CCc2cc(O)c(N3CC(=O)NS3(=O)=O)c(F)c2C1 (stereo not drawn) [Compound 390, 5-(1-fluoro-3-hydroxy-7-{[(3-methylbutyl)amino]methyl}-5,6,7,8-tetrahydronaphthalen-2-yl)-1λ^6,2,5-thiadiazolidine-1,1,3-trione] | 10 to 100 | 10 to 100
2 | CC(C)(C)OC(=O)NCC1CCc2cc(O)c(N3CC(=O)NS3(=O)=O)c(F)c2C1 (stereo not drawn) [Compound 391, tert-butyl {[8-fluoro-6-hydroxy-7-(1,1,4-trioxo-1λ^6,2,5-thiadiazolidin-2-yl)-1,2,3,4-tetrahydronaphthalen-2-yl]methyl}carbamate] | 10 to 100 | 10 to 100
3 | CC(C)CCN[C@H]1Cc2c(cc(O)c(N3CC(=O)NS3(=O)=O)c2F)C[C@H]1O [Compound 393, 5-{(6R,7S)-1-fluoro-3,6-dihydroxy-7-[(3-methylbutyl)amino]-5,6,7,8-tetrahydronaphthalen-2-yl}-1λ^6,2,5-thiadiazolidine-1,1,3-trione] | 1 to 10 | 1 to 10
4 | O=C1CN(c2c(O)cc3c(c2F)CC(CNCCCC2CC2)CC3)S(=O)(=O)N1 (stereo not drawn) [Compound 394, 5-(7-{[(3-cyclopropylpropyl)amino]methyl}-1-fluoro-3-hydroxy-5,6,7,8-tetrahydronaphthalen-2-yl)-1λ^6,2,5-thiadiazolidine-1,1,3-trione] | 10 to 100 | 10 to 100
5 | C[C@@H]1C[C@@H](NC(=O)OC(C)(C)C)Cc2c1cc(O)c(N1CC(=O)NS1(=O)=O)c2F [Compound 395, tert-butyl [(2R,4R)-8-fluoro-6-hydroxy-4-methyl-7-(1,1,4-trioxo-1λ^6,2,5-thiadiazolidin-2-yl)-1,2,3,4-tetrahydronaphthalen-2-yl]carbamate] | > 100 | > 100
6 | CCCCNCC1CCc2cc(O)c(N3CC(=O)NS3(=O)=O)c(F)c2C1 (stereo not drawn) [Compound 396, 5-{7-[(butylamino)methyl]-1-fluoro-3-hydroxy-5,6,7,8-tetrahydronaphthalen-2-yl}-1λ^6,2,5-thiadiazolidine-1,1,3-trione] | 10 to 100 | 10 to 100
7 | C[C@@H]1C[C@@H](N)Cc2c1cc(O)c(N1CC(=O)NS1(=O)=O)c2F [Compound 397, 5-[(5R,7R)-7-amino-1-fluoro-3-hydroxy-5-methyl-5,6,7,8-tetrahydronaphthalen-2-yl]-1λ^6,2,5-thiadiazolidine-1,1,3-trione] | > 100 | > 100
8 | C[C@H]1C[C@@H](N)Cc2c1cc(O)c(N1CC(=O)NS1(=O)=O)c2F [Compound 398, 5-[(5S,7R)-7-amino-1-fluoro-3-hydroxy-5-methyl-5,6,7,8-tetrahydronaphthalen-2-yl]-1λ^6,2,5-thiadiazolidine-1,1,3-trione] | 10 to 100 | 10 to 100
9 | O=C1CN(c2c(O)cc3c(c2F)CC(CNCC2CC2)CC3)S(=O)(=O)N1 (stereo not drawn) [Compound 399, 5-(7-{[(cyclopropylmethyl)amino]methyl}-1-fluoro-3-hydroxy-5,6,7,8-tetrahydronaphthalen-2-yl)-1λ^6,2,5-thiadiazolidine-1,1,3-trione] | 10 to 100 | 10 to 100
10 | O=C1CN(c2c(O)cc3c(c2F)CC(CNCC2CCC2)CC3)S(=O)(=O)N1 (stereo not drawn) [Compound 400, 5-(7-{[(cyclobutylmethyl)amino]methyl}-1-fluoro-3-hydroxy-5,6,7,8-tetrahydronaphthalen-2-yl)-1λ^6,2,5-thiadiazolidine-1,1,3-trione] | 10 to 100 | 10 to 100
11 | N[C@@H]1CCc2cc(O)c(N3CC(=O)NS3(=O)=O)c(F)c2[C@H]1O [Compound 401, 5-[(7R,8R)-7-amino-1-fluoro-3,8-dihydroxy-5,6,7,8-tetrahydronaphthalen-2-yl]-1λ^6,2,5-thiadiazolidine-1,1,3-trione] | > 100 | > 100
12 | CC(=O)N[C@@H]1CCc2cc(O)c(N3CC(=O)NS3(=O)=O)c(F)c2C1 [Compound 402, N-[(2R)-8-fluoro-6-hydroxy-7-(1,1,4-trioxo-1λ^6,2,5-thiadiazolidin-2-yl)-1,2,3,4-tetrahydronaphthalen-2-yl]acetamide] | > 100 | > 100
